Measured values published in patent US7429607B2, “5-HT2B receptor antagonists” (Asterand UK Limited, priority 2002, dated 2008).

Experiments:
[1] = target: T1, human cloned 5-HT2B receptors (Homo sapiens, UniProt P41595); assay: Human cloned 5-HT2B receptor binding assay ([3H]LSD, CHO-K1 membranes); conditions: displacement of [3H]LSD (1 nM), read-out: 5-HT2B pKi (converted)
T1 construct: expressed in transfected cells; host or cells: CHO-K1 cells
Protocol: The binding affinity of the compounds for human cloned 5-HT2B receptors was determined using the following assay.
CHO-K1 cells expressing cloned 5-HT2B receptor were maintained in Ultra-CHO medium containing 400 μg/ml of G418, 100 U/ml penicillin, 100 μg/ml streptomycin, 2.5 μg/ml fungizone and 1% foetal bovine serum, in 95/5% O2/CO2 at 37° C. The cells were harvested using 0.25% trypsin and were centrifuged at 800 rpm for 8 minutes. The cells were homogenised in 50 mM HEPES buffer containing 1 mM disodium EDTA and 1 mM PMSF at pH 7.4, using a Dounce homogeniser (20 strokes). The homogenate was centrifuged at 2280 rpm (1000 g) and 4° C. for 10 minutes, after which the supernatant was removed by decanting. The pellet was re-homogenised as above, and the resulting supernatant removed and combined with that already obtained. The supernatant solution was then centrifuged at 18300 rpm (40000 g) for 10 minutes at 4° C. using a Sorvall centrifuge. The supernatant was removed, and the pellet was re-suspended in 50 mM buffer at pH 7.4 using a Ultra-turrax T25 Polytron, before centrifugation again at 40000 g as above. This wash procedure was repeated, after which the membrane preparation was stored at a concentration of 1 mg/ml at −80° C. until use.
The membranes were thawed rapidly and diluted in assay buffer containing Tris-HCl (50 mM, pH 7.4), ascorbic acid (0.1%) and calcium chloride (4 mM). The membranes were homogenised to resuspend them, prior to adding 10 or 15 μg of membranes to assay wells containing [^3H]LSD (1 nM), assay buffer (50 mM Tris, 4 mM calcium chloride and 0.1% ascorbic acid) containing pargyline (10 μM), and the test compounds (1×10^−10 to 1×10^−4M). Non specific binding was determined in the presence of 100 μM 5-HT. After 30 minutes incubation at 37° C., the assay mixture was filtered through a combination of GF-C and GF-B filters, pre-soaked in 1% polyethyleneimine, using a Brandel cell harvester, and were washed three times using 50 mM Tris-HCl. Radioactivity retained on the filters was determined by liquid scintillation counting. For each test compound, the concentration that inhibited binding of [3H]LSD by 50% was determined using curve fitting software (Prism). Kd values (concentration of LSD required to occupy 50% of the receptor binding sites at equilibrium) determined from saturation binding studies were then used to calculate inhibition dissociation constants (Ki) using the following equation: […]
This approach follows that set out in Kenakin, T.P. Pharmacologic analysis of drug-receptor interaction. Raven Press, New York, 2nd Edition.

[2] = target: T2, cloned human 5-HT2A receptor (Homo sapiens, UniProt P28223); assay: Human 5-HT2A receptor binding assay ([3H]ketanserin, CHO-K1 membranes); conditions: displacement of [3H]ketanserin (1 nM), read-out: 5-HT2A pKi (converted)
T2 construct: purchased Euroscreen; host or cells: CHO-K1 cells
Protocol: (§1) The binding affinity of ligands for human 5-HT2A and 5-HT2C receptors was determined using the following assay.
Membrane preparations from CHO-K1 cells expressing the cloned human 5-HT2A receptor were obtained (Euroscreen). The membranes were thawed rapidly and diluted in assay buffer containing Tris-HCl (50 mM, pH 7.7). The membranes were resuspended by homogenisation, prior to adding 15 μg of membranes to assay wells containing [3H] ketanserin (1 nM), assay buffer (50 mM Tris at pH 7.4) containing pargyline (10 μM), and test compounds (1×10^−10 to 1×10^−4M). Non specific binding was determined in the presence of 100 μM mianserin. After 15 minutes incubation at 37° C., the assay mixture was filtered through a combination of GF-C and GF-B filters, pre-soaked in 0.05% Brij, using a Brandel cell harvester, and were washed three times using ice cold Tris-HCl buffer (50 mM). Radioactivity retained on the filters was determined by liquid scintillation counting. For each test compound, the concentration that inhibited binding of [^3H]ketanserin by 50% was determined using curve fitting software (Prism). Kd values (concentration of ketanserin required to occupy 50% of the receptor binding sites at equlibrium) determined from saturation binding studies were then used to calculate inhibition dissociation constants (Ki) using the following equation: […]

[3] = target: T3, cloned human 5-HT2C receptor (Homo sapiens, UniProt P28335); assay: Human 5-HT2C receptor binding assay ([3H]mesulergine, CHO-K1 membranes); conditions: displacement of [3H]mesulergine (1 nM), read-out: 5-HT2C pKi (converted)
T3 construct: purchased Euroscreen; host or cells: CHO-K1 cells
T3 sequence (P28335 33-458): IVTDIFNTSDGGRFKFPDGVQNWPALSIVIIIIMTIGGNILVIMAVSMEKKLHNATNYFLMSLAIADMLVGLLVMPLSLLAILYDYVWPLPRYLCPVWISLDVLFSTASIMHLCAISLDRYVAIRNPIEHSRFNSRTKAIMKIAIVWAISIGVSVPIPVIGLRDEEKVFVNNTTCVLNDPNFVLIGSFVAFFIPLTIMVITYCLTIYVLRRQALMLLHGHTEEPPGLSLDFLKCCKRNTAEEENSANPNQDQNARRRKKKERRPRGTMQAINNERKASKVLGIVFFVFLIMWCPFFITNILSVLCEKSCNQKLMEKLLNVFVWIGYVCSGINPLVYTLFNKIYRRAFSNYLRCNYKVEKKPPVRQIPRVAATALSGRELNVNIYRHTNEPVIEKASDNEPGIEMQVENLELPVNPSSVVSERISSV
Protocol: as §1
Membrane preparations from CHO-K1 cells expressing the cloned human 5-HT2C receptor were obtained (Euroscreen). The membranes were thawed rapidly and diluted in assay buffer containing Tris-HCl (50 mM, pH 7.7), ascorbic acid (0.1%) and pargyline (10 μM). The membranes were resuspended by homogenisation, prior to adding 6 μg of membranes to assay wells containing [^3H] mesulergine (1 nM), assay buffer (50 mM Tris at pH 7.7 and 0.1% ascorbic acid) containing pargyline (10 μM), and test compounds (1×10^−10 to 1×10^−4M). Non specific binding was determined in the presence of 100 μM mianserin. After 30 minutes incubation at 37° C., the assay mixture was filtered through a combination of GF-C and GF-B filters, pre-soaked in 1% bovine serum albumin, using a Brandel cell harvester, and were washed three times using ice cold Tris-HCl buffer (50 mM). Radioactivity retained on the filters was determined by liquid scintillation counting. For each test compound, the concentration that inhibited binding of [3H]mesulergine by 50% was determined using curve fitting software (Prism). Kd values (concentration of mesulergine required to occupy 50% of the receptor binding sites at equlibrium) determined from saturation binding studies were then used to calculate inhibition dissociation constants (Ki) using the following equation: […]

T2 sequence (P28223 whole entry): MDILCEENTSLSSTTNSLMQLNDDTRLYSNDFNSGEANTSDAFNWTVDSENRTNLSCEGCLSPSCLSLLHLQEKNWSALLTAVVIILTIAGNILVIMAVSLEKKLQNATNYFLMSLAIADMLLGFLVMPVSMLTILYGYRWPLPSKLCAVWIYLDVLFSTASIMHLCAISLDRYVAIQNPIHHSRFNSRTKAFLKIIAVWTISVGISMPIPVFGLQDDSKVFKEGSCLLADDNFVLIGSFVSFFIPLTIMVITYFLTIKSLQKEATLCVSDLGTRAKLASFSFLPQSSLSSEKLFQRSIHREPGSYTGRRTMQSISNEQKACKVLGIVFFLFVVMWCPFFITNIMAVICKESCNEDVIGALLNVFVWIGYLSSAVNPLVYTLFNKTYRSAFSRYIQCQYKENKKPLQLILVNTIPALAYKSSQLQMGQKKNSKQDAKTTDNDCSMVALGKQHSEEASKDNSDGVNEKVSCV
T1 sequence (P41595 whole entry): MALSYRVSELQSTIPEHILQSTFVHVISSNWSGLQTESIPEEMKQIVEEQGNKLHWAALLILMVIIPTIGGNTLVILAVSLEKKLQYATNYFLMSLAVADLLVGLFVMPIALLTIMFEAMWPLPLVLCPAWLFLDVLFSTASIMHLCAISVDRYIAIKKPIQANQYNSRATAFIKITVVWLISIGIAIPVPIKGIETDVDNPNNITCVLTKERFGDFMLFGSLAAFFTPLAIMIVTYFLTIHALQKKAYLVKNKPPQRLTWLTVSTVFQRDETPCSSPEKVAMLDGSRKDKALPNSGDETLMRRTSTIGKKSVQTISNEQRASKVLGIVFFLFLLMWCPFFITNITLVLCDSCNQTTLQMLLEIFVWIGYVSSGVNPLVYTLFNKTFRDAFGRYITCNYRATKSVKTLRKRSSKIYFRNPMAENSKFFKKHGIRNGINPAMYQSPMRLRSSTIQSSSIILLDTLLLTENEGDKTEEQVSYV

| Structure (SMILES) | Ki [1] | Ki [2] | Ki [3] | melting point |
| --- | --- | --- | --- | --- |
| Nc1nc(-c2ccc3c(c2)OCCO3)co1 [Compound 14, 4-(2,3-dihydro-benzo[1,4]dioxin-6-yl)-oxazol-2-ylamine] | < 1 µM | > 10 µM | > 10 µM |  |
| Nc1nc(-c2ccc(F)c3ccccc23)co1 [Compound 4, 2-amino-4-(4′-fluoronaphth-1-yl)oxazole] | < 0.1 µM | > 1 µM | > 1 µM | 171 to 174 °C |
| COc1ccc2ccccc2c1-c1oc(N)nc1C [Compound 26, 5-(2-methoxy-naphthalen-1-yl)-4-methyl-oxazol-2-ylamine] | < 0.01 µM | > 1 µM |  |  |
| COc1ccc(-c2coc(N)n2)c2ccccc12 [Compound 11, 4-(4-methoxy-naphthalen-1-yl)-oxazol-2-ylamine] | < 0.1 µM | > 10 µM | > 10 µM |  |
| Nc1nc(-c2cccc3ccc(Br)cc23)co1 [Compound 5, 2-amino-4-(7′-bromonaphth-1-yl)oxazole] | < 0.1 µM | > 1 µM | > 1 µM | 189 to 190 °C |
| Nc1nc(-c2cccc3c(Br)cccc23)co1 [Compound 19, 4-(5-bromo-naphthalen-1-yl)-oxazol-2-ylamine] | < 10 µM | > 10 µM | > 1 µM |  |
| N#Cc1ccc2cccc(-c3coc(N)n3)c2c1 [Compound 20, 4-(7-carbonitrile-naphthalen-1-yl)-oxazol-2-ylamine] | < 10 µM | > 10 µM | > 10 µM |  |
| COc1c(-c2coc(N)n2)ccc2ccccc12 [Compound 18, 4-(1-methoxy-naphthalen-2-yl)-oxazol-2-ylamine] | < 1 µM | > 10 µM | > 10 µM |  |
| Nc1nc(-c2c(OCc3ccccc3)ccc3ccccc23)co1 [Compound 12, 4-(2-benzyloxy-naphthalen-1-yl)-oxazol-2-ylamine] | < 1 µM |  |  |  |
| N#Cc1cccc2c(-c3coc(N)n3)cccc12 [Compound 21, 4-(5-carbonitrile-naphthalen-1-yl)-oxazol-2-ylamine] | < 10 µM | > 10 µM | > 1 µM |  |
| CCOc1ccc2ccccc2c1-c1coc(N)n1 [Compound 10, 4-(2-ethoxy-naphthalen-1-yl)-oxazol-2-ylamine] | < 0.01 µM | > 1 µM | > 1 µM |  |
| Cc1c(-c2coc(N)n2)sc2ccccc12 [Compound 13, 4-(3-methyl-benzo[b]thiophen-2-yl)-oxazol-2-ylamine] | < 1 µM | > 10 µM | > 1 µM |  |
| Nc1nc(-c2cccc3sccc23)co1 [Compound 15, 4-benzo[b]thiophen-4-yl-oxazol-2-ylamine] | < 1 µM | > 1 µM | > 1 µM |  |

Second part, led by results:

| Ki [1] | Ki [2] | Structure (SMILES) | Ki [3] | melting point |
| --- | --- | --- | --- | --- |
| < 0.1 µM | > 10 µM | Cc1oc(N)nc1-c1cccc2ccccc12 [Compound 30, 5-Methyl-4-naphthalen-1-yl-oxazol-2-ylamine] |  |  |
| < 0.1 µM |  | Nc1nc(CO)c(-c2cccc3ccccc23)o1 [Compound 29, (2-amino-5-naphthalen-1-yl-oxazol-4-yl)-methanol] | > 1 µM |  |
| < 1 µM | > 10 µM | CN(C)c1nc(-c2cccc3ccccc23)co1 [Compound 8, 2-dimethylamino-4-(naphth-1-yl)oxazole] | > 10 µM | 30 to 32 °C |
| < 1 µM | > 10 µM | CC(=O)Nc1nc(-c2cccc3ccccc23)co1 [Compound 9, 2-acetylamino-4-(naphth-1-yl)oxazole] | > 1 µM | 188 to 190 °C |
| < 0.1 µM | > 1 µM | Nc1nc(-c2c(O)ccc3ccccc23)co1 [Compound 22, 1-(2-amino-oxazol-4-yl)-naphthalen-2-ol] |  |  |
| < 1 µM |  | COC(=O)COc1ccc2ccccc2c1-c1coc(N)n1 [Compound 23, [1-(2-amino-oxazol-4-yl)-naphthalen-2-yloxy]-acetic acid methyl ester] | > 10 µM |  |
| < 0.1 µM | > 10 µM | CC(=O)OCc1nc(N)oc1-c1cccc2ccccc12 [Compound 28, acetic acid 2-amino-5-naphthalen-1-yl-oxazol-4-ylmethyl ester] |  |  |
| < 10 µM | > 10 µM | NC(=O)c1ccc2cccc(-c3coc(N)n3)c2c1 [Compound 24, 8-(2-amino-oxazol-4-yl)-naphthalene-2-carboxylic acid amide] | > 10 µM |  |
